Data set [1] is described as follows: MTT cytotoxicity (cell viability) assay. Particulars: human, HepG2 cell line, 48 h, Figure 6. Format: cell-based, human. As for the experimental part: (§1) Cells were treated with extracts/compound dissolved in DMSO with a final DMSO concentration of 0.05%. DMSO treated cells were used as control in all the experiments. Cell viability was determined by MTT assay as described by us previously. Briefly, HepG2 cells were treated with different concentrations of compounds for 48 h. […] Subsequently, 150 μL DMSO was added to dissolve formazan crystals and absorbance was measured at 490 nm in a microplate reader (Thermo Scientific, Waltham, MA, USA). The percentage of cell viability was calculated.

Another data set deals with HepG2 cells. The data set is described as follows: MTT cytotoxicity (cell viability) assay. Format: cell-based, human. Particulars: Homo sapiens, HepG2, read-out: IC50 as anti-cancer agents. The method, then: as §1
The nature of data set [2]: Antioxidant free radical scavenging activity using DPPH. Format: biochemical. As to conditions: Figure 7 and text. (DPPH is a stable violet radical that fades when it is reduced.)
Experimental: The potential of synthesized compounds to scavenge the free radicals were assessed by using diphenylpicrylhydrazyl (DPPH) as free radical [48].
These stock solutions were then subjected to prepare their dilutions up to 250 µg, 200 µg, 150 µg, 100 µg, 50 µg and 25 µg respectively. DPPH solution of 4% was prepared by mixing 0.004 g of DPPH in 100 ml methanol (commercial grade). Ascorbic acid was used as control and its solution was prepared by mixing 0.0017612 g into 100 ml of water having 100 µg concentration.
In test tubes 1 mL of sample from each diluted solution and 2 mL of DPPH solution was added. In the same way, 1 mL of the ascorbic acid was added along with 2 ml of DPPH as control and allowed to stand overnight.

Molecules are shown by their SMILES. Converted amounts (≈) assume the structure as drawn.

Broadly, the IC50 is the concentration that inhibits the measured activity by half. One may read the melting point as the temperature of the solid-liquid transition. Regarding `CCOC(=O)C1=C(C)NC(=O)NC1c1cccc(F)c1` (stereo not drawn) [Compound 5b, ethyl 4-(3-fluorophenyl)-6-methyl-2oxo-1,2,3,4-tetrahydropyrimidine-5-carboxylate], the melting point lay in the range of 210 to 213 °C. Half-maximal inhibition in data set [1] (HepG2 cells) (IC50 at 48 h) was put at 11.3 µg/mL (≈ 40.5 µM).

`CCOC(=O)C1=C(C)NC(=S)NC1c1cccc(Cl)c1` (stereo not drawn) [Compound 5h, ethyl 4-(3-chlorophenyl)-6-methyl-2thioxo-1,2,3,4-tetrahydropyrimidine-5-carboxylate] registered a 50% inhibitory concentration (IC50) at 48 h in data set [1] of 13 µg/mL (≈ 41.7 µM).

`CCOC(=O)C1=C(C)NC(=S)NC1c1cccc(F)c1` (stereo not drawn) [Compound 5e, ethyl 4-(3-fluorophenyl)-6-methyl-2-thioxo-1,2,3,4-tetrahydropyrimidine-5-carboxylate] displayed an IC50 at 48 h in data set [1] of 5.35 µg/mL (≈ 18.2 µM). In addition, the IC50 with HepG2 cells is 5.35 µg/mL (≈ 18.2 µM).

`CCOC(=O)C1=C(C)NC(=S)NC1c1ccc(F)cc1` (stereo not drawn) [Compound 5f, ethyl 4-(4-fluorophenyl)-6-methyl-2thioxo-1,2,3,4-tetrahydropyrimidine-5-carboxylate] came in with a melting point of 233 to 235 °C. The compound further showed an IC50 at 48 h in data set [1] (HepG2 cells) of 18.7 µg/mL (≈ 63.5 µM).

`CCOC(=O)C1=C(C)NC(=O)NC1c1ccc(F)cc1` (stereo not drawn) [Compound 5c, ethyl 4-(4-fluorophenyl)-6-methyl-2oxo-1,2,3,4-tetrahydropyrimidine-5-carboxylate]: the IC50 at 48 h in data set [1] worked out at 7.29 µg/mL (≈ 26.2 µM). Besides, the “IC50 as anti-oxidant agents” value in data set [2] was 6.261 µM.

`CCOC(=O)C1=C(C)NC(=O)NC1c1ccccc1F` (stereo not drawn) [Compound 5a, 4-(2-fluorophenyl)-6-methyl-2oxo-1,2,3,4-tetrahydropyrimidine-5-carboxylate]: the melting point is 230 to 233 °C. The IC50 at 48 h in data set [1] was found to be 16 µg/mL (≈ 57.5 µM).

In data set [1], `CCOC(=O)C1=C(C)NC(=S)NC1c1ccccc1F` (stereo not drawn) [Compound 5d, ethyl 4-(2-fluorophenyl)-6-methyl-2-thioxo-1,2,3,4-tetrahydropyrimidine-5-carboxylate] showed an IC50 at 48 h of 25.5 µg/mL (≈ 86.7 µM).

For the origin of these results see publication PMC8348070, “Structure-Based Designing, Solvent Less Synthesis of 1,2,3,4-Tetrahydropyrimidine-5-carboxylate Derivatives: A Combined In Vitro and In Silico Screening Approach” (Molecules, 2021).
